Patent publication US8557770B2, “Method of preventing or reducing scarring of human skin” (Pharmecosse Ltd., priority 2000, dated 2013)
Read-outs that look alike come from different tables or passages of the source.

How the values were obtained:
PPARγ = biological target: T1, PPARγ (Homo sapiens, UniProt P37231); settings: read-out: Published C50, cited from earlier work
T1 sequence (P37231 1-505): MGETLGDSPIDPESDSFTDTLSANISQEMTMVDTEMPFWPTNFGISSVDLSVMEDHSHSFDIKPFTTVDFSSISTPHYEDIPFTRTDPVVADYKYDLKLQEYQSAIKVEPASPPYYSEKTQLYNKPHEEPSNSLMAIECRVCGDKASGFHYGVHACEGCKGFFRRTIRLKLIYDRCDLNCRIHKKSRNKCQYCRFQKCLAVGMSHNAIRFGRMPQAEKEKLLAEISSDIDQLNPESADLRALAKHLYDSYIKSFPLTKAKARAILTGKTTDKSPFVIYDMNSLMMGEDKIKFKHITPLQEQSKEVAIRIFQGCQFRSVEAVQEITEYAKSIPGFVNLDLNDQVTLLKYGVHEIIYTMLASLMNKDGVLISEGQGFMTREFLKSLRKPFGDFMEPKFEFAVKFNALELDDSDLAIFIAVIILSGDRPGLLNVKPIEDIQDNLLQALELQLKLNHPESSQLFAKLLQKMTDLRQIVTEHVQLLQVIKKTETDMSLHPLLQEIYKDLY

[1] = test system: fibroblast cultures from burns scars; test: In vitro myofibroblast differentiation assay (α-smooth muscle actin staining), burns scar fibroblasts; type: cell-based, human; settings: 14 days
Excerpt: (§1) One of the most important cell types in both normal and pathological scar formation is the myofibroblast. These cells, which differentiate from the unwounded tissue cell type (fibroblasts), are responsible for laying down scar tissue. Indeed myofibroblasts remain present in hypertrophic scars up to four years after the original wounding event. An in vitro assay was accordingly developed to identify actives which prevent or reduce myofibroblast formation and thus identify actives which are effective in reducing and/or preventing scar tissue formation.
(§2) Fibroblast cultures were initiated from normal skin, normal scars, hypertrophic scars (HTS) and burns scars.
(§3) Each culture was split into seven parts (A to G) and grown in the following different growth media:
(§4) (A) was grown in normal growth medium (hereinafter referred to as NGM) which consisted of Dulbecco's modified Eagles Medium (DMEM) plus 10% Foetal Calf Serum (FCS);
(§5) (B) was grown in growth factor depleted medium (hereinafter referred to as GF depleted) which is NGM that is depleted of active polypeptide growth factors including TGFP. It is prepared by treating FCS with a reducing agent in order to attack and cleave the disulphide bonds that determine the conformation and thus the biological activity of the polypeptide growth factors;
(§6) (D) (D1-D4) were grown in growth factor depleted medium plus 1 ng/ml-100 ng/ml of insulin-like Growth Factor-I) (IGF-I) (hereinafter referred to as GF depleted+IGF-I); (E) (E1-E3) were grown in growth factor depleted medium plus 50 ng/ml-[…] of insulin-like Growth Factor II (IGF-II) (hereinafter referred to as GF depleted+IGFII); (F) (F1F3) were grown in growth factor depleted medium plus 25 ng/ml to 100 ng/ml of basic fibroblast growth factor (bFGF) (hereinafter referred to as GF depleted and bFGF);
(G) (G1-G3) were grown in growth factor depleted medium plus 25 ng/ml to 100 ng/ml of platelet derived growth factor (PDGF) (hereinafter referred to as GF depleted+PDGF).
(§7) The fibroblasts were grown in these media (which was replenished twice weekly) for fourteen days, fixed and stained immunohistochemically using an antibody specific for α-smooth muscle actin (a marker of myofibroblasts). The stain caused α-smooth muscle actin to fluoresce green and accordingly cells that had stained green were identified as myofibroblasts. The number of these was counted, as was the total number of cells present, and the proportion of myofibroblasts was then calculated. In this manner, the number of myofibroblasts present in each culture was determined as a percentage of the total number of cells in the culture population.

[2] = test system: fibroblast cultures from normal scars; test: In vitro myofibroblast differentiation assay (α-smooth muscle actin staining), normal scar fibroblasts; type: cell-based, human
Excerpt: as §1, §2, §3, §4, §5
as §6, with “bFGF); […]” for “bFGF);”
as §7, with “The stain caused α-smooth muscle actin to fluoresce green and accordingly cells that had stained green were identified as myofibroblasts.” left out
(§8) Fibroblast cultures were initiated from normal scars (NS) and hypertrophic scars (HTS). […] The number of myofibroblasts was calculated as a percentage of the total cell population and the results are shown in FIGS. 1 and 2 of the drawings.
(§9) Fibroblasts cultures were initiated from normal and hypertrophic scars. […] The number of myofibroblasts were counted and calculated as a percentage of the total cells present.

[3] = test system: fibroblast cultures from hypertrophic scars (HTS); test: In vitro myofibroblast differentiation assay (α-smooth muscle actin staining), hypertrophic scar fibroblasts; type: cell-based, human; settings: hypertrophic scar fibroblasts
Excerpt: as §1, §2, §3, §4, §5
as §6, with “bFGF); […]” for “bFGF);”
as §7, with “The stain caused α-smooth muscle actin to fluoresce green and accordingly cells that had stained green were identified as myofibroblasts.” left out
as §8, §9

[4] = test system: dermal fibroblast cell lines; test: Myofibroblast number in dermal fibroblast cell lines in GFD medium with PPAR agonist; type: cell-based, human; settings: for Mean percentage reduction in myofibroblast number compared to GFD medium alone: 14 days
Excerpt: Dermal fibroblast cell lines were derived from 3 patients and seeded individually onto sterile coverslips. […] Medium was refreshed twice weekly and cultures were harvested for immunohistochemical staining for α-smooth muscle actin after 14 days. The number of myofibroblasts was counted and calculated as a percentage of the total cells present, and since the ability of each cell line to differentiate into myofibroblasts varied extensively, the results were normalised as follows. Results are expressed as the mean percentage reduction in myofibroblast number for each treatment as compared to the proportion of myofibroblasts identified in GFD medium alone for that cell line. The error bars represent plus or minus one standard deviation.

PPAR = settings: Table 3: other general PPAR agonists; read-out: Published C50; cited from earlier work
[5] = Table 5: natural PPARγ agonists
[6] = NGM plus 0.5 ng/ml TGFβ1, 5 days (FIG. 3)

## CCOC(=O)C(C)(C)Oc1ccc(Cl)cc1 [Clofibrate]
PPARγ; Table 4: strong agonists for PPAR receptors other than PPARγ, weak action on PPARγ
  EC50: ~500 µM

## CCCCCC(O)C=CC=CCCCCCCCC(=O)O (stereo not drawn) [13-HODE, 13-hydroxy-9,11-octadecadienoic acid]
PPARγ; [5]
  EC50: ~20 µM

## IGF-II: insulin-like Growth Factor II
[1]; GF depleted medium + 50 ng/ml
  Number of myofibroblasts - percentage of total cell population: 37.93 percentage of total cell popul
[1]; GF depleted medium + 100 ng/ml
  Number of myofibroblasts - percentage of total cell population: 40.26 percentage of total cell popul
[1]; GF depleted medium + 200 ng/ml
  Number of myofibroblasts - percentage of total cell population: 38.52 percentage of total cell popul

## O=C[C@@H](O)[C@@H](O)[C@H](O)[C@H](O)COP(=O)(O)O [mannose-6-phosphate, reference compound]
[2]; GFD plus 100 μM or 10 μM M-6-P, 13 days (FIG. 1)
  Induction of myofibroblast differentiation in GFD medium: inhibits the induction of myofibroblast differentiation
[3]; GFD plus 100 μM or 10 μM M-6-P, 13 days (FIG. 2)
  Induction of myofibroblast differentiation in GFD medium: inhibits the induction of myofibroblast differentiation

## CC1(COc2ccc(CC3SC(=O)NC3=O)cc2)CCCCC1 (racemic) [Ciglitazone, (±)-5-[4-(1-methyl-cyclohexylmethoxy)-benzyl]-thiazolidine-2,4-dione]
[4]; 0.5×10^−7M
  Mean percentage reduction in myofibroblast number compared to GFD medium alone: 79%
[4]; 10^−6M
  Mean percentage reduction in myofibroblast number compared to GFD medium alone: 57%
[4]; 10^−7M
  Mean percentage reduction in myofibroblast number compared to GFD medium alone: 53%

## CCCc1c(OCCCCc2nnn[nH]2)ccc(C(C)=O)c1O [LY171883]
[4]; non-specific PPAR agonist
  Numbers of myofibroblasts: increase the numbers of myofibroblasts

## CCCCC/C=C\C/C=C\CCCCCCCC(=O)O [Linoleic acid]
PPARγ; [5]
  EC50: ~20 µM

## CCCc1c(OCCCOc2ccc(OCC(=O)O)cc2)ccc(C(C)=O)c1O [L-165041]
PPAR
  EC50: 5.5 µM

## IGF-I: insulin-like Growth Factor-I
[1]; GF depleted medium + 1 ng/ml
  Number of myofibroblasts - percentage of total cell population: 40.79 percentage of total cell popul
[1]; GF depleted medium + 10 ng/ml
  Number of myofibroblasts - percentage of total cell population: 43.90 percentage of total cell popul
[1]; GF depleted medium + 50 ng/ml
  Number of myofibroblasts - percentage of total cell population: 51.51 percentage of total cell popul
[1]; GF depleted medium + 100 ng/ml
  Number of myofibroblasts - percentage of total cell population: 47.00 percentage of total cell popul

## CCCCCC=CC=C1C(=O)C=C[C@@H]1CC=CCCCC(=O)O [15-deoxy-Δ^12,14 prostaglandin J2]
PPARγ; [5]
  EC50: ~3 µM

## CCCCC[C@H](O)/C=C/C=C\C/C=C\C/C=C\CCCC(=O)O [15-HETE, 15-hydroxy-eicosatetraenoic acid]
PPARγ; [5]
  EC50: ~10 µM

## TGFβ1: transforming growth factor beta 1, inducer of myofibroblast differentiation
[2]; [6]
  Induction of myofibroblast differentiation: induces a rapid (within 5 days) induction of myofibroblast differentiation
[3]; [6]
  Induction of myofibroblast differentiation: induces a rapid (within 5 days) induction of myofibroblast differentiation

## PDGF
[1]; GF depleted medium + 25 ng/ml
  Number of myofibroblasts - percentage of total cell population: 50.95 percentage of total cell popul
[1]; GF depleted medium + 50 ng/ml
  Number of myofibroblasts - percentage of total cell population: 52.84 percentage of total cell popul
[1]; GF depleted medium + 100 ng/ml
  Number of myofibroblasts - percentage of total cell population: 53.35 percentage of total cell popul

## CCCCCC=CC=CC(O)CCCCCCCC(=O)O (stereo not drawn) [9-HODE, 9-hydroxy-10,12-octadecadienoic acid]
PPARγ; [5]
  EC50: ~20 µM

## CCCCC/C=C\C/C=C\C/C=C\C/C=C\CCCC(=O)O [Arachidonic acid]
PPARγ; [5]
  EC50: ~20 µM

## CC/C=C\C/C=C\C/C=C\C/C=C\C/C=C\CCCC(=O)O [Eicosapentaenoic acid (EPA), Eicosapentaenoic acid]
PPARγ; [5]
  EC50: ~20 µM

## bFGF: basic fibroblast growth factor
[1]; GF depleted medium + 25 ng/ml
  Number of myofibroblasts - percentage of total cell population: 31.82 percentage of total cell popul
[1]; GF depleted medium + 100 ng/ml
  Number of myofibroblasts - percentage of total cell population: 34.21 percentage of total cell popul

## CC(C)(Oc1ccc(CCNC(=O)c2ccc(Cl)cc2)cc1)C(=O)O [Bezafibrate, 2-[4-[2-[(4-chlorobenzoyl)-amino]ethyl]phenoxy]-2-methyl propanoic acid]
PPAR
  EC50: 60 µM
